pIC50: −log10 of the molar value. Where no end group is shown, it is not given here.

Experimental findings from US8524861B2, “Treatment of bacterial infections” (priority 2004, dated 2013) are described below.

Format in all cases: cell-based
In assay [1] the test system is Staphylococcus aureus (ATCC strain 6538P). The conditions noted are these: for pIC50: ATCC strain 6538P; for Activity against Staphylococcus, in particular S. aureus, in words: summary in description. The procedure:
(§1) Bacterial Stocks—ATCC derived stock bacteria were obtained from Oxoid Limited. Pseudomonas aeruginosa (ATCC strain 9027) or Staphylococcus aureus (ATCC strain 6538P) were obtained in ‘Cultiloop’ format. Stocks were prepared by inoculating 20 ml of LB broth with a single Cultiloop, and incubating overnight at 37° C. Cells present after overnight incubation were harvested by removing larger aggregates by centrifugation (3000 g, 10 minutes), and withdrawing 16 ml of the supernatant, which was likely to contain mainly planktonic bacteria. To this, 4 ml of sterile glycerol was added (the latter having been sterilised by autoclaving). The resultant suspension was divided between 15× 1 ml cryovials before freezing at −85° C.
(§2) Preliminary experiments were carried out to estimate the amount to dilute bacterial stocks which when on addition of 25 μl of diluted stock to 100 μl of fresh LB broth would result in bacteria in log phase growth after overnight incubation at 37° C.
(§3) The peptides were examined for antibacterial efficacy against Staphylococcus aureus. To test the efficacy of peptides, dilutions of test peptides or PBS (for use as a control) were prepared in LB broth, and 100 μl aliquots of these placed in 96-well plates. A vial of planktonic bacterial stock was thawed in a 37° C. incubator and diluted to the level previously determined which would produce log phase growth after overnight incubation (see above). 25 μl of this bacterial dilution was then added to the test wells (some wells containing LB broth without peptide were left without any bacterial inoculation, these being used as a blank). After overnight growth, the concentration of bacteria in individual wells was assessed by measuring absorbance at 620 nm, in a microplate spectrophotometer. The average absorbance of wells for specific concentrations of peptides was calculated, and from this the percentage inhibition (relative to untreated wells) was also calculated and plotted against concentration (along with an estimate of error on that % inhibition).
(§4) The inventor constructed an expanded library of peptides derived from either apolipoprotein B or apolipoprotein E in order to further evaluate polypeptides in accordance with the invention. Further experiments were then conducted to investigate the antibacterial activity of this peptide library against the bacteria P. aeroginosa, S. aureus and S. pneumoniae. The methods used to determine the IC50 values for each peptide were as described in the Example 1.

Assay [2] deals with Streptococcus pneumoniae. The protocol:
as §3, with “inhibition). […] The inventor constructed an expanded library of peptides derived from either apolipoprotein B or apolipoprotein E in order to further evaluate polypeptides in accordance with the invention. Further experiments were then conducted to investigate the antibacterial activity of this peptide library against the bacteria P. aeroginosa, S. aureus and S. pneumoniae. The methods used to determine the IC50 values for each peptide were as described in the Example 1.” for “inhibition).”

Assay [3] relates to Pseudomonas aeruginosa (ATCC strain 9027). The conditions noted are these: for pIC50: ATCC strain 9027; for Effectiveness against Pseudomonadales, in particular P. aeruginosa, in words: summary in description. The protocol: as §1, §2, §3
Peptides in accordance with the invention were also examined for antibacterial efficacy against Pseudomonas aeruginosa using the same technique as described above to calculate the IC50 values.
Points were obtained by dividing the average for six treated wells by the average for six untreated wells, and bars show an estimate of the error for these calculated values.
as §4

Assay [4] deals with Staphylococcus aureus, Pseudomonas aeruginosa, and Streptococcus pneumoniae. Briefly: Antibacterial activity, overall statements over the test bacteria.
Text: The inventors conducted exhaustive experiments to assess the antibacterial activity of peptides from apolipoproteins and derivatives thereof. Peptides and derivatives from ApoE and ApoB were a particular focus. […] Example 1 illustrates the efficacy of the polypeptides according to the invention compared to apoE141-149 and apoB3359-3367 (i.e. non-tandem repeats) and other peptides derived from apolipoproteins.
The activity of polypeptides in accordance with the invention can be seen in Tables 5, 6, 7 and 8.
as §3, §4

For the substance “KRWRKRWRKWRWRKRWRK-NH2 (C-terminus assumed) [MU_29]”, the pIC50 is 4.64 in assay [1], 4.28 in assay [2] and 5.12 in assay [3].

As to “RWRKRWRKRWRKRWRK-NH2 (C-terminus assumed) [MU_37]”, in assay [4], the “Antibacterial activity, in words, bacterium not specified” value is listed as “particularly effective”. The pIC50 in assay [1] is 4.46; in assay [3], 4.64.

“MRKLRKRLMMRKLRKRLM-NH2 (C-terminus assumed) [MU_43]”: the “Antibacterial activity, in words, bacterium not specified” value in assay [4] is recorded as “particularly effective”. This substance also had a pIC50 in assay [3] of 4.77.

Consider “LLRKRLKRLLLRKRLKRL-NH2 (C-terminus assumed) [MU_24]”, for which the “Antibacterial activity, in words, bacterium not specified” value in assay [4] was “particularly effective”. In addition, the negative-log IC50 (pIC50) in assay [1] is 4.47; in assay [3], 5.15.

For the substance “WRKWRKRWWRWRKWRKRWWR-NH2 (C-terminus assumed) [MU_83]”, the “Antibacterial activity, in words, bacterium not specified” value in assay [4] is on record as “particularly effective”. Also, the pIC50 in assay [1] was 5.05; in assay [3], 4.82.

Take “RKRGWKWRKRGWKW-NH2 (C-terminus assumed) [MU_73]”: in assay [4], the “Antibacterial activity, in words, bacterium not specified” value is “particularly effective”. Further, the values for the pIC50 in assay [1] and in assay [3] were 4.66 and 4.37, respectively.

As for “WRKWRKRFFWRKWRKRFF-NH2 (C-terminus assumed) [MU_61]”, the “Antibacterial activity, in words, bacterium not specified” value in assay [4] is reported as “particularly effective”. For the same substance, in assay [1], the pIC50 is 5.30 and the “Activity against Staphylococcus, in particular S. aureus, in words” value (“Activity against Staphylococcus” below) is on record as “particularly active”. Moreover, in assay [3], the pIC50 was 5.52 and the “Effectiveness against Pseudomonadales, in particular P. aeruginosa, in words” value is reported as “particularly effective”.

Turning to “RRWRKRWRKWRWRKRWRK-NH2 (C-terminus assumed) [MU_28]”, the “Antibacterial activity, in words, bacterium not specified” value in assay [4] was “particularly effective”. For the same substance, the pIC50 in assay [1] was 4.82; in assay [2], 4.34; in assay [3], 4.94.

Consider “HRWRKRWRKWRWRKRWRK-NH2 (C-terminus assumed) [MU_31]”, for which the pIC50 is 4.77 in assay [1], 4.38 in assay [2] and 4.92 in assay [3].

Regarding “FRKFRKRFFFRKFRKRFF-NH2 (C-terminus assumed) [MU_7]”, in assay [4], the “Antibacterial activity, in words, bacterium not specified” value is listed as “particularly effective”. In addition, the pIC50 in assay [1] is 4.96; in assay [3], 5.22.

Regarding “LRKLRKRLL-NH2 (C-terminus assumed) [MU_46]”, the pIC50 in assay [2] was less than 4.28; in assay [3], 4.66.

For “WRKWRKRWRKWRKRW-NH2 (C-terminus assumed) [MU_59]”, the “Antibacterial activity, in words, bacterium not specified” value in assay [4] is given as “particularly effective”. Further, the negative-log IC50 (pIC50) is 4.96 in assay [1] and 5.12 in assay [3].

With “Ac-LRKLRKRLLRLRKLRKRLLR-NH2 (N-terminus and C-terminus assumed) [MU_82]”, the “Antibacterial activity, in words, bacterium not specified” value in assay [4] is on record as “particularly effective”. The substance further showed a pIC50 in assay [1] of 4.89. The “Effectiveness against Pseudomonadales, in particular P. aeruginosa, in words” value in assay [3] is given as “particularly effective”.

On to “Ac-LRKLRKRLLLRKLRKRWW-NH2 (N-terminus and C-terminus assumed) [MU_112]”, for which the “Antibacterial activity, in words, bacterium not specified” value in assay [4] is given as “particularly effective”. Further, the pIC50 in assay [1] and in assay [3] was 5.15 throughout.

Consider “LRWRKRWRKWRWRKRWRK-NH2 (C-terminus assumed) [MU_30]”, for which the “Antibacterial activity, in words, bacterium not specified” value in assay [4] is “particularly effective”. Further, the pIC50 is 4.82 in assay [1], 4.42 in assay [2] and 4.82 in assay [3].

In the case of “WRKWRKRWWRKWRKRWW-NH2 (C-terminus assumed) [MU_58]”, in assay [4], the “Antibacterial activity, in words, bacterium not specified” value was “particularly effective”. Moreover, in assay [1], the pIC50 was 5.10 and the “Activity against Staphylococcus” value is recorded as “particularly active”. The substance further showed a pIC50 in assay [3] of 5.12.

Consider “Ac-LRKLRKRLRKLRKR-NH2 (N-terminus and C-terminus assumed) [GIN 08]”, for which, in assay [2], the pIC50 is less than 4.28. Moreover, in assay [3], the negative logarithm of the IC50 (pIC50) was 5.04 and the “Effectiveness against Pseudomonadales, in particular P. aeruginosa, in words” value is reported as “particularly effective”.

In the case of “LRWRKRWRKLRWRKRWRK-NH2 (C-terminus assumed) [MU_35]”, the negative-log IC50 (pIC50) in assay [1] was 4.51; in assay [2] it was 4.28; in assay [3] it was 4.64.

For “RRKRRKRRRRRKRRKRRR-NH2 (C-terminus assumed) [MU_16]”, the negative logarithm of the IC50 (pIC50) in assay [2] and in assay [3] was less than 4.28 each time.

Take “WRKWRKRWWFRKWRKRWW-NH2 (C-terminus assumed) [MU_60]”: the “Antibacterial activity, in words, bacterium not specified” value in assay [4] is “particularly effective”. Also, in assay [1], the pIC50 is 5.22 and the “Activity against Staphylococcus” value is listed as “particularly active”. Moreover, the pIC50 in assay [3] was 4.90.

For “Ac-WRKLRKRLLLRKLRKRLL-NH2 (N-terminus and C-terminus assumed) [MU_115]”, the “Antibacterial activity, in words, bacterium not specified” value in assay [4] was “particularly effective”. The pIC50 in assay [1] is 5.05. Also, in assay [3], the pIC50 was 5.52 and the “Effectiveness against Pseudomonadales, in particular P. aeruginosa, in words” value was “particularly effective”.

Take “RWRKRWRKWRWRKRWRK-NH2 (C-terminus assumed) [MU_32]”: the “Antibacterial activity, in words, bacterium not specified” value in assay [4] is on record as “particularly effective”. Moreover, the pIC50 is 4.82 in assay [1], 4.34 in assay [2] and 4.92 in assay [3].

As for “RRWRKRWRKRRWRKRWRK-NH2 (C-terminus assumed) [MU_33]”, the pIC50 in assay [1] was 4.42; in assay [2], 4.28; in assay [3] it was less than 4.28.

As to “WRKWRKRWWWRKWRKRWW-NH2 (C-terminus assumed) [MU_4]”, in assay [4], the “Antibacterial activity, in words, bacterium not specified” value is recorded as “particularly effective”. For the same substance, the “Activity against Staphylococcus” value in assay [1] is on record as “particularly active”.

On to “HRWRKRWRKHRWRKRWRK-NH2 (C-terminus assumed) [MU_36]”, for which the pIC50 in assay [1] was 4.40; in assay [2], less than 4.28; in assay [3], less than 4.28.

As for “modified apoB3359-3367: modified form of the apoB3359-3367 9-mer; sequence only in the drawing of Table 1 (LRTRKRGRK) [reference compound]”, in assay [4], the “Antibacterial activity, in words, bacterium not specified” value is reported as “no detectable antibacterial activity”.

The pIC50 is −log10 of the IC50, conventionally taken in molar units.
